{"source": "patent US8962024B2", "about": "“Method for treating primary insomnia” (Neurim Pharmaceuticals (1991) Ltd, priority 2001, dated 2015)", "key": {"[1]": {"system": "healthy elderly volunteers", "experiment": "Driving performance test after an evening tablet (Example 4)", "assay_type": "in vivo, human", "details": "2 hours post-dosing; zolpidem 10 mg, melatonin prolonged release 2 mg", "method": "(§1) The effect of melatonin (2 mg prolonged-release formulation), N, N, 6-trimethyl-2-p-tolylimidazo[1,2-a]pyridine-3-acetamide (zolpidem; 10 mg) and placebo on psychomotor skills and driving performance were assessed in 16 healthy elderly volunteers age 59.4 years (SD 3.2). In a randomized, double-blind, crossover study the subjects were given a tablet of placebo in the evening to establish baseline and then a tablet of melatonin, zolpidem or placebo in a random order in the evening with one week with no treatment in between treatments. A battery of psychomotor tasks, driving performance and wake EEG during a driving test were studied in the patients at pre-selected intervals after the administration of the tablet."}, "[2]": {"system": "healthy elderly volunteers", "experiment": "Battery of psychomotor tasks after an evening tablet (Example 4)", "assay_type": "in vivo, human", "method": "as §1"}, "[3]": {"system": "elderly primary insomnia patients", "experiment": "Full-night polysomnographic recordings after 3 weeks of treatment (Example 1)", "assay_type": "in vivo, human", "method": "(§2) The effect of a prolonged-release formulation of melatonin on sleep quantity and quality in 40 elderly primary insomnia patients (aged 76 [SD 8] years) were studied in a randomized, double-blind, two parallel group study. The subjects were treated for 3 weeks every evening with melatonin (2 mg prolonged-release formulation) or placebo. Full-night polysomnographic recordings were performed on the last two days of treatment to measure quantitative aspects of sleep. On each morning following sleep recording in the laboratory, a battery of psychomotor tests was taken by all patients to assess daytime vigilance. In addition, patients recorded every day in diaries their perceived quality of sleep the previous night."}, "[4]": {"system": "elderly primary insomnia patients", "experiment": "Subjectively assessed quality of sleep and daytime alertness on 100 mm line (Example 2)", "assay_type": "in vivo, human", "details": "2 mg per night prolonged-release, 3 weeks", "method": "The effect of a prolonged-release formulation of melatonin on subjectively assessed sleep quality and daytime vigilance in 170 elderly primary insomnia patients (aged 68.5 [SD 8.3] years) were studied in a randomized, double-blind, two parallel group study. The subjects were treated for 2 weeks with placebo to establish baseline characteristics and then for 3 weeks with melatonin (2 mg per night of prolonged-release formulation) or placebo. On the last three days of the baseline and treatment periods patients were asked to assess the quality of their sleep the previous night and their feeling in the morning. The quality of sleep question was “How would you compare the quality of sleep using the medication with non-medicated (your usual) sleep?” The patients marked the level of their perceived quality of sleep on a 100 mm, non-hatched horizontal line with two endpoints. The left endpoint was labeled “more restless than usual” and the right endpoint was labeled “more restful than usual”. The waking state question was “How do you feel now?” The patients marked the level of their perceived waking state on a 100 mm, non-hatched horizontal line with two endpoints. The left endpoint was labeled “tired” and the right endpoint was labeled “alert”. The distance of the patient mark from the right endpoint in mm was measured (a reduction in value therefore indicates a better sleep or less tired state). The mean distance across the three nights was calculated."}, "[5]": {"system": "polysomnographically pre-screened insomniacs", "details": "1 and 5 mg at 10:45 pm for one night each, cited from earlier work"}, "[6]": {"system": "primary insomnia patients (aged 20-80 years)", "experiment": "Subjectively assessed quality of sleep and daytime alertness on 100 mm line (Example 3)", "assay_type": "in vivo, human", "details": "for Change in perceived daytime alertness, mean in mm / Change in perceived quality of sleep, mean in mm: 2 mg per night prolonged-release, 3 weeks", "method": "The effect of a prolonged-release formulation of melatonin on subjectively assessed sleep quality and daytime vigilance in 170 elderly primary insomnia patients (aged 68.5 [SD 8.3] years) were studied in a randomized, double-blind, two parallel group study. The subjects were treated for 2 weeks with placebo to establish baseline characteristics and then for 3 weeks with melatonin (2 mg per night of prolonged-release formulation) or placebo. On the last three days of the baseline and treatment periods patients were asked to assess the quality of their sleep the previous night and their feeling in the morning. The quality of sleep question was “How would you compare the quality of sleep using the medication with non-medicated (your usual) sleep?” The patients marked the level of their perceived quality of sleep on a 100 mm, non-hatched horizontal line with two endpoints. The left endpoint was labeled “more restless than usual” and the right endpoint was labeled “more restful than usual”. The waking state question was “How do you feel now?” The patients marked the level of their perceived waking state on a 100 mm, non-hatched horizontal line with two endpoints. The left endpoint was labeled “tired” and the right endpoint was labeled “alert”. The distance of the patient mark from the right endpoint in mm was measured (a reduction in value therefore indicates a better sleep or less tired state). The mean distance across the three nights was calculated. The effect of melatonin on subjectively assessed sleep quality and daytime vigilance in 131 primary insomnia patients (aged 20-80 years) were studied in a randomised, double-blind, parallel group study. The subjects were treated for 1 week with placebo to establish baseline characteristics and then for 3 weeks with melatonin (2 mg per night of prolonged-release formulation) or placebo. On the last three days of the baseline and treatment periods patients were asked to assess the quality of their sleep the previous night and their feeling at daytime as described in Example 2."}, "insomniac patients": {"system": "insomniac patients", "details": "75 mg per os at 10 PM daily for 14 consecutive days, cited from earlier work"}, "[7]": {"system": "elderly primary insomnia patients", "experiment": "Battery of psychomotor tests to assess daytime vigilance (Example 1)", "assay_type": "in vivo, human", "details": "2 mg prolonged-release formulation", "method": "as §2"}, "[8]": {"system": "patients with psychophysiological insomnia", "details": "5 mg at 8:00 pm for 1 week; cited from earlier work"}, "[9]": {"system": "elderly primary insomnia patients", "experiment": "Patient diaries of perceived quality of sleep (Example 1)", "assay_type": "in vivo, human", "details": "2 mg prolonged-release formulation, 3 weeks", "method": "as §2"}, "[10]": {"system": "elderly patients with sleep maintenance insomnia", "details": "immediate and controlled release formulations, 0.5 and 5 mg, cited from earlier work"}, "[11]": {"details": "zolpidem 10 mg single evening tablet"}, "[12]": {"details": "2 mg prolonged-release formulation, 3 weeks, versus placebo"}}}
{"smiles": "Cc1ccc(-c2nc3ccc(C)cn3c2CC(=O)N(C)C)cc1", "note": "[zolpidem, N, N, 6-trimethyl-2-p-tolylimidazo[1,2-a]pyridine-3-acetamide]", "values": [{"measurement": "number of collisions", "setting": "[1]", "result": "increased number of collisions"}, {"measurement": "Memory efficiency, both recalls (immediate and delayed), compared to placebo and melatonin 2 mg", "setting": "[2]; zolpidem 10 mg", "result": "decreased"}, {"measurement": "impairments compared to placebo across measures of attention, episodic secondary memory and motor coordination", "setting": "[2]; [11]", "result": "several acute impairments"}, {"measurement": "time post-dosing by which acute impairments were resolved", "setting": "[2]; [11]", "result": "≤ 12.5", "unit": "h"}]}
{"smiles": "COc1ccc2[nH]cc(CCNC(C)=O)c2c1", "note": "[melatonin]", "values": [{"measurement": "sleep onset latency (SL) time shortened on average, compared to placebo", "setting": "[3]; 2 mg prolonged-release formulation every evening for 3 weeks, P=0.011", "result": 9, "unit": "min"}, {"measurement": "duration of wake prior sleep onset (DWAPSO) compared to placebo", "setting": "[3]; 2 mg prolonged-release formulation, 3 weeks, p=0.011", "result": "improved significantly"}, {"measurement": "% of time spent asleep prior to sleep onset (DWAPSOP) compared to placebo", "setting": "[3]; 2 mg prolonged-release formulation, 3 weeks, p=0.02", "result": "improved significantly"}, {"measurement": "sleep architecture or all night EEG spectral analysis", "setting": "[3]; [12]", "result": "no differences between groups"}, {"measurement": "sleep maintenance variables (number of awakenings, DWASO, sleep efficiency, total sleep time)", "setting": "[3]; [12]", "result": "no differences between melatonin and placebo"}, {"measurement": "quality of sleep and daytime alertness compared to placebo", "setting": "[4]", "result": "significantly improved"}, {"measurement": "Change in perceived quality of sleep, change in mm mean", "setting": "[4]; 170 elderly patients, reduction = better sleep", "result": "−24.3", "unit": "mm"}, {"measurement": "Change in perceived daytime alertness, change in mm mean", "setting": "[4]; 170 elderly patients, reduction = less tired", "result": "−16.8", "unit": "mm"}, {"measurement": "sleep latency, sleep efficiency, total sleep time, wake after sleep onset", "setting": "[5]; 10 insomniacs", "result": "did not alter"}, {"measurement": "patient-reported sleep quality", "setting": "[5]", "result": "improved"}, {"measurement": "rested in the morning, patient-reported", "setting": "[5]", "result": "not more rested"}, {"measurement": "total sleep time as believed by the patients", "setting": "[5]", "result": "shorter"}, {"measurement": "quality of sleep and daytime alertness", "setting": "[6]; 55 years and older patients", "result": "improvement"}, {"measurement": "Change in perceived daytime alertness, mean in mm", "setting": "[6]; Patients aged 55 and over", "result": "−16.3", "unit": "mm"}, {"measurement": "Change in perceived quality of sleep, mean in mm", "setting": "[6]; Patients aged 55 and over", "result": "−13.1", "unit": "mm"}, {"measurement": "Change in perceived daytime alertness, mean in mm", "setting": "[6]; Patients aged less than 55", "result": "−4.0", "unit": "mm"}, {"measurement": "Change in perceived quality of sleep, mean in mm", "setting": "[6]; Patients aged less than 55", "result": "−1.6", "unit": "mm"}, {"measurement": "quality of sleep and daytime alertness compared to placebo", "setting": "[6]; patients <55 years of age", "result": "significant worsening"}, {"measurement": "subjective assessment of total sleep time and daytime alertness", "setting": "insomniac patients; 13 patients", "result": "significant increase"}, {"measurement": "patients reporting no significant effect on subjective feelings of well-being", "setting": "insomniac patients", "result": "7/13"}, {"measurement": "Critical Flicker fusion test and total reaction time, melatonin vs. placebo", "setting": "[7]; at the end of treatment", "result": "significant treatment effects"}, {"measurement": "psychomotor skills compared to placebo-treated group", "setting": "[7]; morning after sleep recording", "result": "significantly higher"}, {"measurement": "patients unable to distinguish the period of active melatonin treatment", "setting": "[8]", "result": "8 patients out of 15"}, {"measurement": "sleep quantity or quality", "setting": "[8]", "result": "no reported change"}, {"measurement": "ease of getting to sleep as evaluated in diaries, compared to placebo", "setting": "[9]", "result": "did not evaluate the ease of getting to sleep as being better"}, {"measurement": "quality of sleep as judged by patients in diaries", "setting": "[9]", "result": "improved"}, {"measurement": "sleep latency", "setting": "[10]; 30 min before sleep", "result": "reduced"}, {"measurement": "reported sleep quality or daytime measure of mood and alertness", "setting": "[10]", "result": "No melatonin-induced changes"}, {"measurement": "wake time after sleep onset or total sleep time", "setting": "[10]", "result": "did not alter"}]}
